Oc1ccc(/C=C/c2cc(O)cc(O)c2)cc1
solubility (mole fraction)
Conditions	288.15 K	293.15 K	298.15 K	303.15 K	308.15 K	313.15 K
in transcutol	0.148	0.15	0.153	0.156	0.159	0.161
in water	1.29e-06	1.91e-06	2.78e-06	4e-06	5.74e-06	8.03e-06

— BigSolDB 2.1
